Assay results: PubChem BioAssay (NCI)
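Protocol summary: plate cells (96-well), add compound at 5 concentrations, incubate 48 h, interpolate endpoints linearly. Abbreviation: GI50, concentration required for 50% inhibition of growth. TGI: total growth inhibition.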

Columns and labels:
Test in all cases: NCI tumour cell line growth inhibition, 48 h
[1] = system: BT-549 breast
[2] = system: NCI-H460 lung
[3] = system: NCI/ADR-RES ovarian
[4] = system: SK-OV-3 ovarian
[5] = system: A549 NSCLC
[6] = system: CAKI-1 renal
[7] = system: HOP-92 NSCLC
[8] = system: SF-295 CNS
[9] = system: UACC-257 melanoma
[10] = system: HS 578T breast
[11] = system: COLO 205 colon
[12] = system: EKVX NSCLC
[13] = system: DU-145 prostate
[14] = system: HCT-15 colon
[15] = system: MCF7 breast
[16] = system: A498 renal
[17] = system: 786-0 renal
[18] = system: HOP-62 NSCLC
[19] = system: NCI-H522 lung
[20] = system: MOLT-4 leukemia
[21] = system: NCI-H226 lung
[22] = system: ACHN renal
[23] = system: OVCAR-8 ovarian
[24] = system: OVCAR-4 ovarian
[25] = system: RXF 393 renal
[26] = system: IGROV1 ovarian
[27] = system: RPMI-8226 leukemia
[28] = system: SNB-75 CNS
[29] = system: SK-MEL-28 melanoma
[30] = system: SF-268 CNS
[31] = system: UO-31 renal
[32] = system: LOX IMVI melanoma
[33] = system: HCT-116 colon
[34] = system: SNB-19 CNS
[35] = system: HL-60(TB) leukemia
[36] = system: NCI-H23 lung
[37] = system: SF-539 CNS
[38] = system: K-562 leukemia
[39] = system: CCRF-CEM leukemia
[40] = system: UACC-62 melanoma
[41] = system: HT29 colon
[42] = system: M14 melanoma
[43] = system: MDA-MB-231 breast
[44] = system: MDA-MB-435
[45] = system: KM12 colon
[46] = system: TK-10 renal
[47] = system: SN12C renal
[48] = system: PC-3 prostate
[49] = system: SK-MEL-2 melanoma
[50] = system: HCC-2998 colon
[51] = system: T-47D breast
[52] = system: SR leukemia
[53] = system: SK-MEL-5 melanoma
[54] = system: U251 CNS
[55] = system: MALME-3M melanoma
[56] = system: OVCAR-5 ovarian
[57] = system: SW-620 colon

For C#Cc1nc(/C=C/C(=O)c2nccn2C)cs1, the GI50 [1] was 815 nM, the TGI [1] was 1530 nM and the GI50 [2] was 898 nM. The TGI [2] was 2100 nM, the GI50 [3] was 723 nM and the TGI [3] was 2700 nM. It also gave a GI50 [4] of 1180 nM, a TGI [4] of 2440 nM and a GI50 [5] of 1110 nM. It also gave a TGI [5] of 3060 nM, a GI50 [6] of 735 nM and a TGI [6] of 1480 nM. It also gave a GI50 [7] of 1050 nM, a TGI [7] of 1880 nM and a GI50 [8] of 961 nM. It also gave a TGI [8] of 1870 nM, a GI50 [9] of 732 nM and a TGI [9] of 1610 nM. The GI50 [10] was 1040 nM, the TGI [10] was 3130 nM and the GI50 [11] was 815 nM. It also gave a TGI [11] of 1730 nM, a GI50 [12] of 964 nM and a TGI [12] of 1960 nM. It also gave a GI50 [13] of 583 nM, a TGI [13] of 1280 nM and a GI50 [14] of 510 nM. It also gave a TGI [14] of 1310 nM, a GI50 [15] of 537 nM and a TGI [15] of 1940 nM. The GI50 [16] was 780 nM, the TGI [16] was 1520 nM and the GI50 [17] was 262 nM. It also gave a TGI [17] of 623 nM, a GI50 [18] of 1050 nM and a TGI [18] of 1960 nM. For the same compound, the GI50 [19] was 566 nM, the TGI [19] was 1370 nM and the GI50 [20] was 859 nM. For the same compound, the TGI [20] was 2500 nM, the GI50 [21] was 1490 nM and the TGI [21] was 9130 nM. For the same compound, the GI50 [22] was 291 nM, the TGI [22] was 794 nM and the GI50 [23] was 1160 nM. The TGI [23] was 4360 nM, the GI50 [24] was 1000 nM and the TGI [24] was 2340 nM. The GI50 [25] was 502 nM, the TGI [25] was 1390 nM and the GI50 [26] was 105 nM. For the same compound, the TGI [26] was 215 nM, the GI50 [27] was 205 nM and the TGI [27] was 894 nM. The GI50 [28] was 668 nM, the TGI [28] was 1360 nM and the GI50 [29] was 915 nM. For the same compound, the TGI [29] was 2040 nM, the GI50 [30] was 813 nM and the TGI [30] was 1830 nM. For the same compound, the GI50 [31] was 132 nM, the TGI [31] was 355 nM and the GI50 [32] was 22.9 nM. It also gave a TGI [32] of 49.9 nM, a GI50 [33] of 456 nM and a TGI [33] of 1220 nM. The GI50 [34] was 812 nM, the TGI [34] was 1550 nM and the GI50 [35] was 167 nM. For the same compound, the TGI [35] was 645 nM, the GI50 [36] was 798 nM and the TGI [36] was 1720 nM. For the same compound, the GI50 [37] was 748 nM, the TGI [37] was 1470 nM and the GI50 [38] was 377 nM. The TGI [38] was 2260 nM, the GI50 [39] was 149 nM and the TGI [39] was 566 nM. It also gave a GI50 [40] of 715 nM, a TGI [40] of 1460 nM and a GI50 [41] of 837 nM. It also gave a TGI [41] of 1700 nM, a GI50 [42] of 845 nM and a TGI [42] of 1980 nM. The GI50 [43] was 708 nM, the TGI [43] was 1500 nM and the GI50 [44] was 976 nM. For the same compound, the TGI [44] was 2820 nM, the GI50 [45] was 498 nM and the TGI [45] was 1200 nM. The GI50 [46] was 1170 nM, the TGI [46] was 2120 nM and the GI50 [47] was 797 nM. It also gave a TGI [47] of 1700 nM, a GI50 [48] of 778 nM and a TGI [48] of 1690 nM. For the same compound, the GI50 [49] was 909 nM, the TGI [49] was 2060 nM and the GI50 [50] was 880 nM. It also gave a TGI [50] of 1620 nM, a GI50 [51] of 229 nM and a TGI [51] of 1380 nM. The GI50 [52] was 125 nM, the TGI [52] was 471 nM and the GI50 [53] was 1040 nM. It also gave a TGI [53] of 2320 nM, a GI50 [54] of 775 nM and a TGI [54] of 1540 nM. The GI50 [55] was 893 nM, the TGI [55] was 1830 nM and the GI50 [56] was 859 nM. It also gave a TGI [56] of 1600 nM, a GI50 [57] of 607 nM and a TGI [57] of 1400 nM.
